Results: ChEMBL document CHEMBL3885861, “Open TG-GATES”

Species: Rattus norvegicus
Experiment: Open TG-GATES - Regimen: Daily Repeat
Type: toxicity, organism-based, Sprague-Dawley
Parameters: regimen Daily Repeat, gender Male, age 6 weeks
Conditions: in vivo, po, 0 mg/kg, route gavage, dose level Control; for APTT / Bas / Eos / Fbg / Hb / Ht / Lym / MCH / MCHC / MCV / Mono / Neu / PT / Plat / RBC / Ret / WBC: tissue Blood; for KIDNEY_L / KIDNEY_R / KIDNEY_TOTAL: tissue Kidney; for LIVER: tissue Liver; for A/G / ALP / ALT / AST / BUN / CRE / Ca / Cl / DBIL / GLC / IP / K / LDH / Na / PL / RALB / TBIL / TC / TG / TP / gamma-GTP: tissue Plasma

O=C(O)COc1nn(Cc2ccccc2)c2ccccc12 [BENDAZAC]
TERMINAL_BW (72 h, time 3 day): 229.2 g
APTT (72 h, time 3 day): 17.5 s
Bas (72 h, time 3 day): 0%
Eos (72 h, time 3 day): 1.2%
Fbg (72 h, time 3 day): 223.2 mg/dL
Hb (72 h, time 3 day): 14.2 g/dL
Ht (72 h, time 3 day): 42.6%
Lym (72 h, time 3 day): 77.2%
MCH (72 h, time 3 day): 21.4 pg
MCHC (72 h, time 3 day): 33.3%
MCV (72 h, time 3 day): 64.4 fL
Mono (72 h, time 3 day): 8.2%
Neu (72 h, time 3 day): 13.8%
PT (72 h, time 3 day): 11.6 s
Plat (72 h, time 3 day): 120.1 x10_4/uL
RBC (72 h, time 3 day): 661.6 x10_4/ul
Ret (72 h, time 3 day): 6.5%
WBC (72 h, time 3 day): 93.7 x10_2/uL
KIDNEY_L (72 h, time 3 day): 1 g
KIDNEY_R (72 h, time 3 day): 1 g
KIDNEY_TOTAL (72 h, time 3 day): 2 g
LIVER (72 h, time 3 day): 11.2 g
A/G (72 h, time 3 day): 2.1
ALP (72 h, time 3 day): 1059.4 IU/L
ALT (72 h, time 3 day): 41.4 IU/L
AST (72 h, time 3 day): 68.6 IU/L
BUN (72 h, time 3 day): 16.6 mg/dL
CRE (72 h, time 3 day): 0.5 mg/dL
Ca (72 h, time 3 day): 10.9 mg/dL
Cl (72 h, time 3 day): 103.4 meq/L
DBIL (72 h, time 3 day): 0.022 mg/dL
GLC (72 h, time 3 day): 206.8 mg/dL
IP (72 h, time 3 day): 7.7 mg/dL
K (72 h, time 3 day): 4.7 meq/L
LDH (72 h, time 3 day): 101.4 IU/L
Na (72 h, time 3 day): 139.8 meq/L
PL (72 h, time 3 day): 162.8 mg/dL
RALB (72 h, time 3 day): 3.9 g/dL
TBIL (72 h, time 3 day): 0.3 mg/dL
TC (72 h, time 3 day): 78.2 mg/dL
TG (72 h, time 3 day): 127.8 mg/dL
TP (72 h, time 3 day): 5.7 g/dL
gamma-GTP (72 h, time 3 day): 1.2 IU/L
TERMINAL_BW ([…], time 7 day): 264.6 g
TERMINAL_BW ([…], time 14 day): 318.4 g
TERMINAL_BW ([…], time 28 day): 399.8 g
APTT ([…], time 7 day): 16.9 s
Bas ([…], time 7 day): 0%
Eos ([…], time 7 day): 0.8%
Fbg ([…], time 7 day): 228.6 mg/dL
Hb ([…], time 7 day): 14.1 g/dL
Ht ([…], time 7 day): 41.4%
Lym ([…], time 7 day): 80.8%
MCH ([…], time 7 day): 21.5 pg
MCHC ([…], time 7 day): 34.1%
MCV ([…], time 7 day): 63.2 fL
Mono ([…], time 7 day): 6%
Neu ([…], time 7 day): 12.6%
PT ([…], time 7 day): 11.5 s
Plat ([…], time 7 day): 128.1 x10_4/uL
RBC ([…], time 7 day): 657 x10_4/ul
Ret ([…], time 7 day): 5.1%
WBC ([…], time 7 day): 96.5 x10_2/uL
APTT ([…], time 14 day): 17.2 s
Bas ([…], time 14 day): 0%
Eos ([…], time 14 day): 0.8%
Fbg ([…], time 14 day): 236 mg/dL
Hb ([…], time 14 day): 14.5 g/dL
Ht ([…], time 14 day): 43%
Lym ([…], time 14 day): 80.4%
MCH ([…], time 14 day): 21.2 pg
MCHC ([…], time 14 day): 33.8%
MCV ([…], time 14 day): 62.8 fL
Mono ([…], time 14 day): 7%
Neu ([…], time 14 day): 11.8%
PT ([…], time 14 day): 11 s
Plat ([…], time 14 day): 122.8 x10_4/uL
RBC ([…], time 14 day): 684.4 x10_4/ul
Ret ([…], time 14 day): 4.3%
WBC ([…], time 14 day): 120.8 x10_2/uL
APTT ([…], time 28 day): 17.8 s
Bas ([…], time 28 day): 0%
Eos ([…], time 28 day): 1%
Fbg ([…], time 28 day): 219 mg/dL
Hb ([…], time 28 day): 15.5 g/dL
Ht ([…], time 28 day): 45.9%
Lym ([…], time 28 day): 83.6%
MCH ([…], time 28 day): 19.8 pg
MCHC ([…], time 28 day): 33.7%
MCV ([…], time 28 day): 58.8 fL
Mono ([…], time 28 day): 4.2%
Neu ([…], time 28 day): 11.4%
PT ([…], time 28 day): 11.7 s
Plat ([…], time 28 day): 115.9 x10_4/uL
RBC ([…], time 28 day): 779.8 x10_4/ul
Ret ([…], time 28 day): 3.5%
WBC ([…], time 28 day): 117.2 x10_2/uL
KIDNEY_L ([…], time 7 day): 1.1 g
KIDNEY_R ([…], time 7 day): 1.2 g
KIDNEY_TOTAL ([…], time 7 day): 2.3 g
KIDNEY_L ([…], time 14 day): 1.3 g
KIDNEY_R ([…], time 14 day): 1.3 g
KIDNEY_TOTAL ([…], time 14 day): 2.6 g
KIDNEY_L ([…], time 28 day): 1.4 g
KIDNEY_R ([…], time 28 day): 1.4 g
KIDNEY_TOTAL ([…], time 28 day): 2.8 g
LIVER ([…], time 7 day): 13.2 g
LIVER ([…], time 14 day): 15.1 g
LIVER ([…], time 28 day): 16.2 g
A/G ([…], time 7 day): 2
ALP ([…], time 7 day): 804.6 IU/L
ALT ([…], time 7 day): 30 IU/L
AST ([…], time 7 day): 60.8 IU/L
BUN ([…], time 7 day): 19.6 mg/dL
CRE ([…], time 7 day): 0.5 mg/dL
Ca ([…], time 7 day): 11.3 mg/dL
Cl ([…], time 7 day): 103.6 meq/L
DBIL ([…], time 7 day): 0.012 mg/dL
GLC ([…], time 7 day): 222.6 mg/dL
IP ([…], time 7 day): 8 mg/dL
K ([…], time 7 day): 4.8 meq/L
LDH ([…], time 7 day): 84.8 IU/L
Na ([…], time 7 day): 141.2 meq/L
PL ([…], time 7 day): 146.2 mg/dL
RALB ([…], time 7 day): 3.9 g/dL
TBIL ([…], time 7 day): 0.3 mg/dL
TC ([…], time 7 day): 70 mg/dL
TG ([…], time 7 day): 111 mg/dL
TP ([…], time 7 day): 5.8 g/dL
gamma-GTP ([…], time 7 day): 1 IU/L
A/G ([…], time 14 day): 1.6
ALP ([…], time 14 day): 749.8 IU/L
ALT ([…], time 14 day): 32 IU/L
AST ([…], time 14 day): 61.2 IU/L
BUN ([…], time 14 day): 18.2 mg/dL
CRE ([…], time 14 day): 0.5 mg/dL
Ca ([…], time 14 day): 10.4 mg/dL
Cl ([…], time 14 day): 105.4 meq/L
DBIL ([…], time 14 day): 0.006 mg/dL
GLC ([…], time 14 day): 197.2 mg/dL
IP ([…], time 14 day): 7.1 mg/dL
K ([…], time 14 day): 4.7 meq/L
LDH ([…], time 14 day): 102.2 IU/L
Na ([…], time 14 day): 141.2 meq/L
PL ([…], time 14 day): 158 mg/dL
RALB ([…], time 14 day): 3.8 g/dL
TBIL ([…], time 14 day): 0.3 mg/dL
TC ([…], time 14 day): 74.8 mg/dL
TG ([…], time 14 day): 153.2 mg/dL
TP ([…], time 14 day): 6.2 g/dL
gamma-GTP ([…], time 14 day): 2.4 IU/L
A/G ([…], time 28 day): 1.4
ALP ([…], time 28 day): 590.2 IU/L
ALT ([…], time 28 day): 33.2 IU/L
AST ([…], time 28 day): 64.4 IU/L
BUN ([…], time 28 day): 20 mg/dL
CRE ([…], time 28 day): 0.6 mg/dL
Ca ([…], time 28 day): 10 mg/dL
Cl ([…], time 28 day): 104.8 meq/L
DBIL ([…], time 28 day): 0.01 mg/dL
GLC ([…], time 28 day): 189.8 mg/dL
IP ([…], time 28 day): 6.4 mg/dL
K ([…], time 28 day): 4.4 meq/L
LDH ([…], time 28 day): 71.4 IU/L
Na ([…], time 28 day): 140.4 meq/L
PL ([…], time 28 day): 142.8 mg/dL
RALB ([…], time 28 day): 3.6 g/dL
TBIL ([…], time 28 day): 0.3 mg/dL
TC ([…], time 28 day): 71.2 mg/dL
TG ([…], time 28 day): 130 mg/dL
TP ([…], time 28 day): 6.2 g/dL
gamma-GTP ([…], time 28 day): 1.8 IU/L
